Assay results from ChEMBL document CHEMBL4265869, “Prodrugs of triterpenoids and their derivatives” (Eur J Med Chem, 2017).

Key:
518A2 = assay: Cytotoxicity in human 518A2 cells by photometric SRB assay; type: functional, cell-based
FaDu = assay: Cytotoxicity in human FADU cells by photometric SRB assay; type: functional, cell-based
HT-29 = assay: Cytotoxicity in human HT-29 cells by photometric SRB assay; type: functional, cell-based
MCF7 = assay: Cytotoxicity in human MCF7 cells by photometric SRB assay; type: functional, cell-based
A549 [1] = assay: Cytotoxicity in human A549 cells by photometric SRB assay; type: functional, cell-based
SW-1736 = assay: Cytotoxicity in human SW1736 cells by photometric SRB assay; type: functional, cell-based
[2] = Selectivity index, ratio of EC50 for mouse NIH/3T3 cells to EC50 for human A549 cells; type: toxicity; conditions: NIH/3T3 cells and A549 cells, read-out: Ratio EC50
A549 [3] = assay: Cytotoxicity in human A549 cells; type: functional, cell-based

COC(=O)[C@]12CCC(C)(C)C[C@H]1C1=CC[C@@H]3[C@@]4(C)C[C@@H](O)[C@H](OS(N)(=O)=O)C(C)(C)[C@@H]4CC[C@@]3(C)[C@]1(C)CC2
EC50 (518A2): 2200 to 3500 nM
EC50 (FaDu): 2200 to 3500 nM
EC50 (HT-29): 2200 to 3500 nM
EC50 (MCF7): 2200 to 3500 nM
EC50 (A549 [1]): 2200 to 3500 nM
EC50 (SW-1736): 2200 to 3500 nM

COC(=O)[C@]12CCC(C)(C)C[C@H]1C1=CC(=O)[C@@H]3[C@@]4(C)CC[C@H](OS(N)(=O)=O)C(C)(C)[C@@H]4CC[C@@]3(C)[C@]1(C)CC2
selectivity ratio [2]: 2.7

C/C=C(\C)C(=O)O[C@@H]1CC(C)(C)C[C@H]2C3=CC[C@@H]4[C@@]5(C)CC[C@H](OC(=O)Cc6ccccc6Cc6c(Cl)cccc6Cl)C(C)(C)[C@@H]5CC[C@@]4(C)[C@]3(C)CCC12C(=O)O (single isomer, unassigned)
IC50 (A549 [3]): 150 nM

C/C=C(\C)C(=O)O[C@@H]1CC(C)(C)C[C@H]2C3=CC[C@@H]4[C@@]5(C)CC[C@H](Oc6ccccc6C(C)=O)C(C)(C)[C@@H]5CC[C@@]4(C)[C@]3(C)CCC12C(=O)O (single isomer, unassigned)
IC50 (A549 [3]): 770 nM

CC(C)=CC(=O)O[C@@H]1CC(C)(C)C[C@H]2C3=CC[C@@H]4[C@@]5(C)CC[C@H](OC(=O)Cc6ccccc6Cc6c(Cl)cccc6Cl)C(C)(C)[C@@H]5CC[C@@]4(C)[C@]3(C)CCC12C(=O)O (single isomer, unassigned)
IC50 (A549 [3]): 420 nM
